Data reported in patent US8283382B2, “Vitamin K for prevention and treatment of skin rash secondary to anti-EGFR therapy” (Albert Einstein College of Medicine of Yeshiva University, priority 2005, dated 2012).
Entries after “also recorded” stand apart in the source; their conditions may differ.

Assays:
EGFR [1] = target: T1, EGFR (Homo sapiens, UniProt P00533); test: Western blot of phosphorylated EGFR in A431 / HN5 cells; format: cell-based; details: for activation (phosphorylation) of EGFR / concentration at which activation of EGFR was seen: 2 hours exposure; for activation (phosphorylation) of EGFR: concentrations up to 1000 μM; for concentration at which activation was seen, converted to mass concentration: K3: EGFR, Akt and Stat-3, K1: EGFR and Akt
T1 construct: Two human cell lines that overexpress non-mutated EGFR were used; endogenous in cells; host or cells: A431 vulvar carcinoma; HN5 head and neck carcinoma
Description: FIG. 1A-1C. Effects of Vitamins K1, K2 and K3 (VK1, VK2, VK3) on the phosphorylation of EGFR (A), AKT (B) and Stat-3 (C) in human A431 vulvar carcinoma cells. […] Cells were exposed to the indicated concentrations of VK1, VK2 and VK3 for 2 hours. Following exposure, cells were washed twice with cold phosphate buffered saline (PBS) solution, and lysed with 50 μl of lysis buffer. Equal amounts of lysate (30 μg of protein) were subjected to a 7.5% or a 12% SDS-PAGE. EGFR, phos-EGFR, AKT, phos-AKT, Stat-3, and phos-Stat-3 were detected by immunoblotting analysis using corresponding antibodies.
FIG. 2. […] After exposure, cells were washed twice with cold PBS solution, and lysed with 50 μl of lysis buffer. Equal amounts of lyaste (30 μg of protein) were subjected to a 7.5% SDS-PAGE. EGFR and phosphorylated EGFR were detected by immunoblotting analysis using corresponding antibodies.
FIG. 4A-4B. […] Cells were exposed to 0.1 mM VK3 for 1 hour. Following exposure, cells were washed three times with cold medium and then reincubated in VK3-free fresh medium with 10% fetal bovine serum for the indicated times. Cells were harvested and lysed with lysis buffer. Equal amounts of cell lysate were subjected on 7.5% SDS-PAGE (A). The total EGFR and phosphorylated EGFR (p-EGFR) were detected by immunoblot analysis using corresponding antibodies. Control (Con) means cells were not exposed to VK3. The relative p-EGFR was expressed as the intensity of p-EGFR bands in each time points measured by a laser densitometry compared with that in control as one (B).
(§1) Two human cell lines that overexpress non-mutated EGFR were used: A431 vulvar carcinoma and HN5 head and neck carcinoma. Cells were exposed to different concentrations of different vitamin K analogs in the presence of one of three EGFR inhibitors: the anti-EGFR monoclonal antibody cetuximab (Erbitux®) and the EGFR tyrosine kinase inhibitors (TKIs) erlotinib (Tarceva®) and gefitinib (Iressa®). Cytotoxicity was assessed by cell counting. Cells were lysed and the effects of different vitamin K analogs on activation of EGFR, the kinase Akt, and Signal Transducer and Activator of Transcription-3 (STAT-3) were assessed by western blot analysis using antibodies for the phosphorylated (activated) forms of EGFR, Akt and Stat-3. […] Vitamins K1, K2, and K3 were purchased from Sigma-Aldrich (St Louis, Mo.). Activation of EGFR, Akt and Stat-3 were assessed in the presence and absence of anti-EGFR treatments of the cells. Activation of EGFR by vitamin K analog was also assessed using mouse skin, which was homogenized and lysed after treatment with the vitamin K analog. Phosphatase activity was determined using pNPP (4-nitrophenyl phosphate disodium) as a substrate.

Akt = test: Western blot of phosphorylated Akt in A431 / HN5 cells; format: cell-based, human; details: for activation (phosphorylation) of Akt / concentration at which activation of Akt was seen: A431 cells, 2 hours exposure; for activation (phosphorylation) of Akt: concentrations up to 1000 μM
Description: (§2) FIG. 1A-1C. Effects of Vitamins K1, K2 and K3 (VK1, VK2, VK3) on the phosphorylation of EGFR (A), AKT (B) and Stat-3 (C) in human A431 vulvar carcinoma cells. A431 cells (1×10^6 cells/well) were plated in a 6-well plate, and incubated in RPMI-1640 medium with 10% serum overnight. Cells were exposed to the indicated concentrations of VK1, VK2 and VK3 for 2 hours. Following exposure, cells were washed twice with cold phosphate buffered saline (PBS) solution, and lysed with 50 μl of lysis buffer. Equal amounts of lysate (30 μg of protein) were subjected to a 7.5% or a 12% SDS-PAGE. EGFR, phos-EGFR, AKT, phos-AKT, Stat-3, and phos-Stat-3 were detected by immunoblotting analysis using corresponding antibodies. Vitamin K3 stimulated EGFR, Akt and Stat-3.
(§3) Two human cell lines that overexpress non-mutated EGFR were used: A431 vulvar carcinoma and HN5 head and neck carcinoma. Cells were exposed to different concentrations of different vitamin K analogs in the presence of one of three EGFR inhibitors: the anti-EGFR monoclonal antibody cetuximab (Erbitux®) and the EGFR tyrosine kinase inhibitors (TKIs) erlotinib (Tarceva®) and gefitinib (Iressa®). Cytotoxicity was assessed by cell counting. Cells were lysed and the effects of different vitamin K analogs on activation of EGFR, the kinase Akt, and Signal Transducer and Activator of Transcription-3 (STAT-3) were assessed by western blot analysis using antibodies for the phosphorylated (activated) forms of EGFR, Akt and Stat-3. Polyclonal antibodies of anti-EGFR, anti-phos-EGFR (Tyr1068), anti-AKT, anti-phos-AKT (Ser473), anti-Stat-3, and anti-phos-Stat-3 (Tyr-705) were purchased from Cell Signaling (Beverly, Mass.). Vitamins K1, K2, and K3 were purchased from Sigma-Aldrich (St Louis, Mo.). Activation of EGFR, Akt and Stat-3 were assessed in the presence and absence of anti-EGFR treatments of the cells. Activation of EGFR by vitamin K analog was also assessed using mouse skin, which was homogenized and lysed after treatment with the vitamin K analog. Phosphatase activity was determined using pNPP (4-nitrophenyl phosphate disodium) as a substrate.

Stat-3 = test: Western blot of phosphorylated Stat-3 in A431 / HN5 cells; format: cell-based, human; details: for activation (phosphorylation) of Stat-3: concentrations up to 1000 μM
Description: as §2, §3

[2] = test system: A431 vulvar carcinoma cells; test: Erlotinib-induced cell growth inhibition / cytotoxicity by cell counting; format: cell-based, human
Description: as §1

phosphatase activity = test: Phosphatase activity in A431 cell extracts with pNPP substrate; format: cell-based, human
Description: FIG. 5. […] A431 cells were exposed to 0.1 mM VK3 for 1 hour. After exposure, cells were washed three times with cold medium and then reincubated in VK3-free medium with 10% fetal bovine serum for the indicated time. Cells were harvested and cell extracts were prepared for the assay of phosphatase activity using pNPP (4-nitrophenyl phosphate disodium) as a substrate. Control (Con) means the phosphatase activity in cells without exposure to VK3. The relative phosphatase activity was expressed as compared with that in control as one. VK3-induced phosphatase inhibition is reversible following removal of VK3.
as §1

[3] = cited from earlier work
EGFR [4] = target: EGFR (Mus musculus, UniProt Q01279); test: EGFR phosphorylation in mouse skin tissue (immunoblot)
Description: Effect of Vitamin K3 (menadione) on erlotinib-induced inhibition of EGFR phosphorylation in mouse skin. […] Mice were administrated P.O. daily 50 mg/kg of erlotinib; mouse skin was smeared with VK3 15 mM ethanol solution. After treatment, the mice were sacrificed and skin tissue was taken. 100 mg skin tissue was used for the preparation of tissue extracts. Equal amounts of skin tissue extracts (80 μg of protein) were subjected on a 7.5% SDS-PAGE. Total EGFR and p-EGFR were detected by immunoblot analysis.
Effect of VK3, Cream B and Cream VK on EGFR phosphorylation in mouse skin tissue. The mice were smeared with 30 mM or 100 mM VK3 (in ethanol), or with the same doses of Cream B or Cream VK. Following treatment, mice were sacrificed and skin tissues were taken for the preparation of tissue extracts. Equal amounts of tissue extracts (80 μg of protein) were subjected on a 7.5% of SDS-PAGE. Total EGFR and p-EGFR were detected by immunoblot analysis using polyclonal anti-EGFR and p-EGFR antibodies. Cream B is an over the counter product (Baby Cakes) containing Vitamin K3 according to its label; the concentration is not specified. Cream VK is a 5% Vitamin K cream available over the counter.
The effect of Vitamin K3 was examined in the skin of animals receiving the EGFR TK inhibitor erlotinib 100 mg/kg×10 days (days 1-10). […] The skin of mice was smeared with Vitamin K3 in ethanol (15 mM BID×5 days on days 5 to 10). The effect of Vitamin K3 was compared to that of two over-the-counter skin creams. Cream B (Baby Cakes) is an over-the-counter product containing Vitamin K3 according to its label; the concentration is not specified. Cream VK is a 5% Vitamin K cream available over-the-counter.

[5] = Matschiner et al., 1972; cited from earlier work

EGFR (Mus musculus, UniProt Q01279), sequence (Q01279 25-1210): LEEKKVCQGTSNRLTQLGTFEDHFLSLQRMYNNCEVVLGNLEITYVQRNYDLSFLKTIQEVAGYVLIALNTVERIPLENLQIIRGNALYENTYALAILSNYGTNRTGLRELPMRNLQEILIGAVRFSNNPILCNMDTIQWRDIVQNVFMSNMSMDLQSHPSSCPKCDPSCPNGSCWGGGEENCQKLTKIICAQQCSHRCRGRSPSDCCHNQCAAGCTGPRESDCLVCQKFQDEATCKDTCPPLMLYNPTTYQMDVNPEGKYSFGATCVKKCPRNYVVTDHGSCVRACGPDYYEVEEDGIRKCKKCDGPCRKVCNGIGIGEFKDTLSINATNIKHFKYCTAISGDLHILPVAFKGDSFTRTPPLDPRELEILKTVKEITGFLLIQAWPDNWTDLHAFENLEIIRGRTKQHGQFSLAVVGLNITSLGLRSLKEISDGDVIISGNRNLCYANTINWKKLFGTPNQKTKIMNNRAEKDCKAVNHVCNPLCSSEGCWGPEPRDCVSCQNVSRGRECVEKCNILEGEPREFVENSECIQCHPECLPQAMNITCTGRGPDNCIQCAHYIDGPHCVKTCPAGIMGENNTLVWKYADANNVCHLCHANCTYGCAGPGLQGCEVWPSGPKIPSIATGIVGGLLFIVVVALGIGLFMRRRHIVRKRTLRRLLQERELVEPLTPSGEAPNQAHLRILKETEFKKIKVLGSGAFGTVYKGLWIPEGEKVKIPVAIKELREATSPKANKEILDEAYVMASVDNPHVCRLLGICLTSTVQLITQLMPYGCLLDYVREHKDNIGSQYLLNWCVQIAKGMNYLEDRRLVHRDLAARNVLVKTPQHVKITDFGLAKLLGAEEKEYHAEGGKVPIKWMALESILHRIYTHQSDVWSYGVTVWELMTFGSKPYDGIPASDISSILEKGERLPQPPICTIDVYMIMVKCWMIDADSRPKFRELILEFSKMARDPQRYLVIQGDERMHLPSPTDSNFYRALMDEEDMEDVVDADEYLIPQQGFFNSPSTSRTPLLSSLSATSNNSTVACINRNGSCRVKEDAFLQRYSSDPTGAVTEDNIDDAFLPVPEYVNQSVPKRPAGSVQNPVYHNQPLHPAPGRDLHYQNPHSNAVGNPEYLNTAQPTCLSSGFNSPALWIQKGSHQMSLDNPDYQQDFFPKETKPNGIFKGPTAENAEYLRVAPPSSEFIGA
T1 sequence (P00533 25-1210): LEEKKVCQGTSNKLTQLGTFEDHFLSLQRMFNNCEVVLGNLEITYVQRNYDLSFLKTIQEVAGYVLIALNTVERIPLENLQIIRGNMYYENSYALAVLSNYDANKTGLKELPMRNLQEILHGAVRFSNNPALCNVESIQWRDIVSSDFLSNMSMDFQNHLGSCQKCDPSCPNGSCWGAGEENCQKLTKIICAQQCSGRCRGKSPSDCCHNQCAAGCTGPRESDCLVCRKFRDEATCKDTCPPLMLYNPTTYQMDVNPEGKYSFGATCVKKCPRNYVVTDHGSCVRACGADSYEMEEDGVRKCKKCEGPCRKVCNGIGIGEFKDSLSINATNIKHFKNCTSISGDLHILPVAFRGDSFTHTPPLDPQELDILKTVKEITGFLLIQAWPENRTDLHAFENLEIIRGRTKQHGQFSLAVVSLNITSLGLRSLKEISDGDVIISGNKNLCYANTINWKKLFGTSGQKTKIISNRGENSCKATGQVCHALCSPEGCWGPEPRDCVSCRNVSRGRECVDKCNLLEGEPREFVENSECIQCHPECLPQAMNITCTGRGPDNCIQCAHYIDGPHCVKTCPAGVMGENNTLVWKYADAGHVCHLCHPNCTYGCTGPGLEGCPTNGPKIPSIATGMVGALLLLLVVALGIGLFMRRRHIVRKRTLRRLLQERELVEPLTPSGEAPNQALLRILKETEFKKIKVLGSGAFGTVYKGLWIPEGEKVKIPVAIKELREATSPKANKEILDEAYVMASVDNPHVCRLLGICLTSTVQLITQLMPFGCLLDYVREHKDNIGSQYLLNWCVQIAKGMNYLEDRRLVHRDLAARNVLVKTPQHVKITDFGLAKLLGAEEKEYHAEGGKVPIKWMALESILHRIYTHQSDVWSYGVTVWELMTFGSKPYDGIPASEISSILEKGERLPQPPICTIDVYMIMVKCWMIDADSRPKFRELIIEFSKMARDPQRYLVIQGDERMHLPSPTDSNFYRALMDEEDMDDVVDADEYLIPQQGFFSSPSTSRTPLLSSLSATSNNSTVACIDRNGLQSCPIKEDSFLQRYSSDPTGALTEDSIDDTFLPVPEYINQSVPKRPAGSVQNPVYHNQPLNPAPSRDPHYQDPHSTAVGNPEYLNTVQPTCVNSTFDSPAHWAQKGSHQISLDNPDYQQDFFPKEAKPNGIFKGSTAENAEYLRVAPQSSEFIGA

**Q.** With `CC(C)=CCC/C(C)=C/CC/C(C)=C/CC/C(C)=C/CC/C(C)=C/CC/C(C)=C/CC1=C(C)C(=O)c2ccccc2C1=O` [Vitamin K2, 2-methyl-3-hexaprenyl-1,4-naphthoquinone] as the molecule, how does the “activation (phosphorylation) of EGFR” value (EGFR [1]; A431 cells) read?
**A.** little or no effect

**Q.** And the “activation (phosphorylation) of Akt” value (Akt)?
**A.** little or no effect

**Q.** What about the “activation (phosphorylation) of Stat-3” value (Stat-3; A431 cells, 2 hours exposure) of the same molecule?
**A.** little or no effect

**Q.** With `CC1=CC(=O)c2ccccc2C1=O` [Vitamin K3, 2-methyl-1,4-naphthoquinone] as the molecule, how does the “reversibility of induced EGFR phosphorylation” value (EGFR [1]; A431 cells, 0.1 mM VK3 1 hour, then VK3-free medium) read?
**A.** reversible

**Q.** And the “concentration at which activation of EGFR was seen” value (EGFR [1]; A431 cells)?
**A.** 100 µM

**Q.** And the “activation (phosphorylation) of EGFR” value (EGFR [1]; A431 cells)?
**A.** stimulated; also recorded: activated

**Q.** And the “concentration at which activation was seen, converted to mass concentration” value (EGFR [1]; A431 cells)?
**A.** about 17 μg/ml

**Q.** And the “activation of EGFR in the presence of erlotinib” value (EGFR [1]; A431 or HN5 cells, serum free medium, erlotinib 2 μM, Vitamin K3 0.01-0.5 mM, 2 hours)?
**A.** prevents the inhibition of EGFR phosphorylation; also recorded: activated

**Q.** And the “activation of EGFR in the presence of cetuximab” value (EGFR [1]; Vitamin K3 0.1 and 0.5 mM)?
**A.** activated

**Q.** And the “concentration at which activation of Akt was seen” value (Akt)?
**A.** 100 µM

**Q.** And the “activation (phosphorylation) of Akt” value (Akt)?
**A.** stimulated; also recorded: activated

**Q.** What about the “activation of Akt in the presence of erlotinib” value (Akt; A431 or HN5 cells, erlotinib 2 μM, at 0.5 mM vitamin K3) of the same molecule?
**A.** activated

**Q.** What about the “activation of Akt in the presence of cetuximab” value (Akt; Vitamin K3 0.1 and 0.5 mM) of the same molecule?
**A.** activated

**Q.** And the “concentration at which activation of Stat-3 was seen” value (Stat-3; A431 cells, 2 hours exposure)?
**A.** 100 µM

**Q.** And the “activation (phosphorylation) of Stat-3” value (Stat-3; A431 cells, 2 hours exposure)?
**A.** stimulated; also recorded: activated

**Q.** What about the “activation of Stat-3 in the presence of erlotinib” value (Stat-3; A431 or HN5 cells, erlotinib 2 μM, at 0.1 and 0.5 mM vitamin K3) of the same molecule?
**A.** activated

**Q.** What about the “activation of Stat-3 in the presence of cetuximab” value (Stat-3; Vitamin K3 0.1 and 0.5 mM) of the same molecule?
**A.** activated

**Q.** And the “decrease of cytotoxicity of the EGFR inhibitor (erlotinib)” value ([2]; co-incubation with Vitamin K3 50-100 μM, 72 hours, cell counting)?
**A.** 4-6 fold

**Q.** And the “effect on phosphatase activity” value (phosphatase activity; A431 cells, 0.1 mM VK3 for 1 hour, pNPP substrate)?
**A.** inhibits phosphatase activity; also recorded: inhibiting phosphatase activity

**Q.** And the “time after removal at which phosphatase inhibition is reversed” value (phosphatase activity; A431 cells, reincubation in VK3-free medium)?
**A.** 2 to 3 h

**Q.** What about the “reversibility of phosphatase inhibition” value (phosphatase activity; following removal of VK3) of the same molecule?
**A.** reversible

**Q.** And the “dermatitis on topical administration” value ([3]; Page et al., 1942)?
**A.** can cause dermatitis

**Q.** What about the “vesiculation of the skin on topical administration” value ([3]; Ulbrich, 1961) of the same molecule?
**A.** vesiculation of the skin

**Q.** What about the “p-EGFR in skin of mice receiving erlotinib” value (EGFR [4]; erlotinib P.O. daily, skin smeared with Vitamin K3 15 mM in ethanol BID x 5 days (days 5 to 10)) of the same molecule?
**A.** rescues; also recorded: significant p-EGFR expression

**Q.** What about the “EGFR phosphorylation in mouse skin tissue” value (EGFR [4]; skin smeared with 30 mM or 100 mM (VK3 in ethanol) x 3 doses every 12 hours, same doses of creams) of the same molecule?
**A.** activates EGFR

**Q.** And the “activation of EGFR in normal mouse skin” value (EGFR [4]; topical application)?
**A.** activated

**Q.** With `C#Cc1cccc(Nc2ncnc3cc(OCCOC)c(OCCOC)cc23)c1` [erlotinib] as the molecule, how does the “effect of exposure on cells” value ([2]; A431 cells, erlotinib alone) read?
**A.** cell death

**Q.** Which biological activity [5] does the source give for `CC1=C(C/C=C(/C)CCC[C@H](C)CCC[C@H](C)CCCC(C)C)C(=O)c2ccccc2C1=O` (single isomer, unassigned) [cis isomer] here?
**A.** little or no biological activity

**Q.** Which results are given for `CC1=C(C/C=C(\C)CCC[C@H](C)CCC[C@H](C)CCCC(C)C)C(=O)c2ccccc2C1=O` [Vitamin K1, 2-methyl-3-phytyl-1,4-naphthoquinone]?
**A.** concentration at which activation of EGFR was seen (EGFR [1]; A431 cells): 1000 µM; activation (phosphorylation) of EGFR (EGFR [1]; A431 cells): activated; concentration at which activation was seen, converted to mass concentration (EGFR [1]; A431 cells): about 450 μg/ml; concentration at which activation of Akt was seen (Akt): 1000 µM
